Values of other authors, collected in article PMC3048208 (British Journal of Cancer, 2011).

Design: method as in Kelly et al, 2005; Steele et al, 2008
Details: ref Kelly et al, 2005; Steele et al, 2008; cited from earlier work

SMILES | half-life
O=C(/C=C/c1cccc(S(=O)(=O)Nc2ccccc2)c1)NO [belinostat] | 1 to 2 h
O=C(CCCCCCC(=O)Nc1ccccc1)NO [vorinostat, suberoylanilide hydroxamic acid] | 1 to 2 h
